Test results: paper PMC6828666, “Discovery of holoenzyme-disrupting chemicals as substrate-selective CK2 inhibitors” (Scientific Reports, 2019)
Several values for one entry are separate records, joined by “and”; a condition that tells them apart may be missing. Equal entries are not always repeated. Entries after “also recorded” stand apart in the source; their conditions may differ.

Assays:
MDA-MB231 cells = assay: Cell death by propidium iodide live-cell imaging (IncuCyte); format: cell-based; conditions: for effect of pan-caspase inhibitor Z-VAD on compound-induced cell death: 80 μM compound, 20 μM Z-VAD
Experimental: Figure 5 Cellular effects of compounds 3, 4 and 6. MCF10A cells were incubated for 24 h with either DMSO or 30 μM TAT or 30 μM TAT-Pc or 25 μM 6 (a) or with increasing concentrations of 6 (b) or 3 (c). MCF10A cells were incubated for 48 h with either DMSO or with increasing concentrations of 3 or 6 (d). Cells were then lysed and analyzed by western blot with the indicated antibodies. Blot images are representative of at least three independent experiments. Uncropped blots are shown in Supplementary Fig. S16. (e) MDA-MB231 cells were treated with 40 μM 6 (⚬), 4 (▴) or 3 (X). (f) MDA-MB231 cells were treated for 30 h with increasing concentrations of 6 (⚬) or 4 (▴). Insert: cells were treated for 30 h with 80 μM 6 or 10 μM CX-4945. (g) Cells were incubated with 80 μM 6 or 4 in the absence or presence of 20 μM Z-VAD. […] (h) MDA-MB231 cells (⚬) or MCF10A cells (⦁) were incubated for 24 h with 80 μM 6. Cell death was automatically quantified from images captured every 3 h for the duration of the experiments using an Essen IncuCyte Zoom live-cell microscopy incubator. Error bars represent the SEM of two biological replicates derived from technical triplicates.
Cells grown on 96-well flat-bottomed plates (Corning Falcon) were tracked using an Essen IncuCyte Zoom live-cell microscopy instrument, an automated live cell imager with high-throughput capabilities and built-in data analysis. Experiments were conducted at 37 °C and 5% CO2. The software incorporated into the IncuCyte Zoom was used to analyze the images.
Cells plated at equal density (2 × 10^4 cells/well) were treated with the indicated inhibitors in cell culture medium containing 0.5 μg/ml Propidium iodide (Sigma-Aldrich). Images of PI-stained red fluorescent cells were captured every 3 h for the duration of the experiment. For apoptosis detection, 50 μL/mL fluorochrome-conjugated Annexin V (Molecular Probes) was added to the medium together with Propidium iodide and apoptotic cell numbers were calculated.

CK2α2β2 holoenzyme = molecular target: T1, CK2α2β2 holoenzyme (Homo sapiens, UniProt P68400); assay: CK2 kinase assay with CK2β-dependent peptide substrate (eIF2-derived); format: biochemical; conditions: for IC50: phosphorylation of CK2β-dependent peptide substrate
T1 construct: made in house; host or cells: Escherichia coli (CK2α)
T1 sequence (P68400 whole entry): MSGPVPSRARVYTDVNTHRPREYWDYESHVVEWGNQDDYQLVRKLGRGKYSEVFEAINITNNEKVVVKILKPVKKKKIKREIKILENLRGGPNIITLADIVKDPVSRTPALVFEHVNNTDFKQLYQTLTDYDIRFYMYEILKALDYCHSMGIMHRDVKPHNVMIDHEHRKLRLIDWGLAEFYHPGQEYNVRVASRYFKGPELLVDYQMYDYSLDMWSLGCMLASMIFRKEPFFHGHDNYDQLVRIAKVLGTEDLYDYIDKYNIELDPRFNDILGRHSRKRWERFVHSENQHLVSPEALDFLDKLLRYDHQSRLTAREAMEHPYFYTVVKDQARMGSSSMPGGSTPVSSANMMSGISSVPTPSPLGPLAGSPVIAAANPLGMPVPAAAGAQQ
Experimental: First, all the compounds were dissolved at 200 μM in 50 mM Tris-HCl pH 7.5 buffer containing 0.1 M NaCl and 5% DMSO; the compounds that precipitated under these conditions were discarded. The 32 remaining compounds were diluted at 200 μM in the kinase buffer and centrifuged at 14,000 g. The supernatant was then assayed for ability to inhibit phosphorylation of a CK2β-dependent peptide substrate. For this, a 22-residue long N-terminal fragment of the eukaryotic translation initiation factor 2 (eIF2), known to be exclusively phosphorylated by the CK2α2β2 holoenzyme[4] was used as a substrate. […]
Final concentration of ATP was 100 μM. Assays were performed under linear kinetic conditions for 5 min at room temperature before termination by the addition of 60 μL of 4% TCA. ^32P incorporation in peptide substrate was determined as previously described. […]

CK2α = CK2α (Homo sapiens, UniProt P68400); assay: SPR binding studies on captured GST-CK2α; conditions: surface plasmon resonance
CK2α, sequence (P68400 whole entry): as above
Experimental: SPR competition studies (Fig. 2i) were performed using a BIAcore 3000 instrument (BIAcore AB) equipped with a CM5 sensor chip (BIAcore AB). After activation with a solution of N-hydroxysuccinimide and N-ethyl-N-(dimethylaminopropyl)carbodiimide hydrochloride (coupling solution BIAcore AB), the anti-GST antibody diluted at 30 μg/ml in 10 mM acetate buffer pH 5.0 was injected at a flow rate of 5 μL/min for 7 min. All the surfaces were blocked with a 3 min injection at 10 μL/min of 1 M ethanolamine, pH 8.0. GST-CK2α (50 μg/ml) was immobilized on the surface at a flow rate of 5 μL/min in HBS (10 mM Hepes pH 7.3, 0.15 M NaCl, 3 mM EDTA, 0.005% polysorbate 20). MBP-CK2β diluted at 50 μg/ml in HBS buffer was injected over the surface at a flow rate of 5 μL/min in presence of various compound 1 concentration. Regeneration of the surfaces was achieved by injection of 10 mM glycine-HCl pH 2.2. SPR binding studies (Supplementary Fig. S7) were performed using a Reichert SR7000DC instrument optical biosensor (Reichert Technologies) equipped with a CMD500m sensor chip obtained from XanTec Bioanalytics. CK2α was immobilized by a capturing approach using a monoclonal anti-GST antibody (27 kDa, Clone GST-R 6G9 produced in rat, SAB4200055 Sigma Aldrich). Prior to use, the anti-GST antibodies were purified twice by micro dialysis at 4 °C (Membrane: dialysis tubing benzoylated, 9 mm, D2272-5FT) in 10 mM sodium acetate, pH = 5. Anti-GST antibodies were immobilized using amine-coupling chemistry at 12 °C. The surfaces of all two flow cells were activated for 7 min with a 1:1 mixture of 0.1 M NHS (N-hydroxysuccinimide) and 0.1 M EDC (3-(N,N-dimethylamino) propyl-N-ethylcarbodiimide) at a flow rate of 10 μL/min. The antibody at a concentration of 30 μg/mL in 10 mM sodium acetate, pH 5.0, was immobilized at a density of 2000 RU on flow cell 2; flow cell 1 was left blank to serve as a reference surface. All the surfaces were blocked with a 3 min injection at 10 μL/min of 1 M ethanolamine, pH 8.0. GST tagged CK2α at a concentration of 50 μg/mL in 10 mM HEPES, 150 mM NaCl, 3 mM EDTA, 0.005% (v/v) polysorbate 20, pH = 7.4 was captured at a density of 900 RU on flow cell 2. In order to collect kinetic binding data, analytes in 10 mM HEPES, 150 mM NaCl, 3 mM EDTA, 0.005% (v/v) polysorbate 20, 1% DMSO (v/v), 100 μM ATP, pH = 7.4 were injected over the two flow cells at concentrations of 50, 25, 12.5, 6.25, 3.12, 1.56 μM at a flow rate of 25 μL/min and at a temperature of 25 °C. The complex was allowed to associate and dissociate for 120 s. Duplicate injections (in random order) of each sample and a buffer blank were flowed over the two surfaces. Affinities were obtained after treatments (DMSO calibration, blank and references subtractions) using the software Scrubber 2.0c.
Fig. S7. Binding kinetics of compounds 2-6 by surface plasmon resonance. For each compound, sensorgrams (black line) and global fits (orange line) are depicted with the corresponding chemical structure and the fitted kinetics parameters. Experiments show representative data of two identical repeats.

[1] = compound at 50 μM, CK2β-dependent peptide substrate

| inhibition at 50 µM (CK2α2β2 holoenzyme; [1]) [%] | Kd (CK2α) [µM] | Structure (SMILES) | effect of pan-caspase inhibitor Z-VAD on compound-induced cell death (MDA-MB231 cells) | sensitivity of MDA-MB231 cells to compound-mediated cell death compared with MCF10A cells (MDA-MB231 cells; 80 μM, 24 h) | time to retraction of membrane extension by the majority of cells (MDA-MB231 cells; MDA-MB231, 40 μM) [h] | concentration at which cell death was already detectable (MDA-MB231 cells; MDA-MB231, 30 h) [µM] | cell death (MDA-MB231 cells; MDA-MB231, 30 h, 80 μM) | Inhibition % at 50 μM (CK2α2β2 holoenzyme; [1]) [%] | inhibition of CK2β-dependent phosphorylation upon addition of Triton X-100 (CK2α2β2 holoenzyme; 0.01% vol/vol Triton X-100, 50 μM compound) | reversibility of inhibition (CK2α2β2 holoenzyme; dilution of the reaction mixture or gel filtration) | IC50 (CK2α2β2 holoenzyme) | cell death (MDA-MB231 cells; MDA-MB231, 40 μM) |
| --- | --- | --- | --- | --- | --- | --- | --- | --- | --- | --- | --- | --- |
|  |  | COc1[nH]c2ccc(F)cc2c1C(=O)OCC1CCN(CCNS(=O)(=O)c2ccccc2)CC1.Cl [Compound 6] | significantly affected; also recorded: significantly attenuated | much more sensitive | 9 | 20 | massive | 80 |  |  |  |  |
| 57 | 41 ± 5 | O=C(OCC1CCN(CCNS(=O)(=O)c2ccccc2)CC1)c1c[nH]c2ccccc12 [Compound 4, (1-(2-(Phenylsulfonamido)ethyl)piperidin-4-yl)methyl 1H-indole-3-carboxylate] | not significantly affected |  | 9 | 20 | massive |  |  |  | 45 µM |  |
| 28 | 54 ± 5 | CS(=O)(=O)NCCN1CCC(COC(=O)c2c[nH]c3ccccc23)CC1 [Compound 3, (1-(2-(Methylsulfonamido)ethyl)piperidin-4-yl)methyl 1H-indole-3-carboxylate] |  |  |  |  |  |  |  |  |  | without effect |

| Structure (SMILES) | inhibition at 50 µM (CK2α2β2 holoenzyme; [1]) [%] | Kd (CK2α) [µM] | effect of pan-caspase inhibitor Z-VAD on compound-induced cell death (MDA-MB231 cells) | sensitivity of MDA-MB231 cells to compound-mediated cell death compared with MCF10A cells (MDA-MB231 cells; 80 μM, 24 h) | time to retraction of membrane extension by the majority of cells (MDA-MB231 cells; MDA-MB231, 40 μM) [h] | concentration at which cell death was already detectable (MDA-MB231 cells; MDA-MB231, 30 h) [µM] | cell death (MDA-MB231 cells; MDA-MB231, 30 h, 80 μM) | Inhibition % at 50 μM (CK2α2β2 holoenzyme; [1]) [%] | inhibition of CK2β-dependent phosphorylation upon addition of Triton X-100 (CK2α2β2 holoenzyme; 0.01% vol/vol Triton X-100, 50 μM compound) | reversibility of inhibition (CK2α2β2 holoenzyme; dilution of the reaction mixture or gel filtration) | IC50 (CK2α2β2 holoenzyme) | cell death (MDA-MB231 cells; MDA-MB231, 40 μM) |
| --- | --- | --- | --- | --- | --- | --- | --- | --- | --- | --- | --- | --- |
| COc1[nH]c2ccc(F)cc2c1C(=O)OCC1CCN(CCNS(C)(=O)=O)CC1 [Compound 1] | 48 |  |  |  |  |  |  |  | not affected | reversed | ~50 µM and 50 µM |  |
